Data from patent publication US20250100996A1, “HETEROCYCLOALKYL AND HETEROARYL COMPOUNDS AND PHARMACEUTICAL COMPOSITIONS THAT MODULATE IKZF2” (Plexium, Inc., priority 2021, published 2025).

How the values were obtained:
IKZF3 (Aiolos) = target: T1, IKZF3 (Aiolos) (Homo sapiens, UniProt Q9UKT9); assay: IKZF3 reporter degradation assay (HEK 293T IKZF3-mNeonGreen reporter cell line); format: cell-based; conditions: HEK 293T IKZF3-mNeonGreen reporter, 24 hours incubation
T1 construct: Leu-Asp junction (codons ctcgac before the linker); mScarlet (behind P2A) (C, cleaved yes); expressed in transfected cells
Text: (§1) Polycistronic plasmids were constructed for the mammalian expression of fluorescent reporter fusions of human transcription factors IKZF1 (Ikaros), IKZF2 (Helios), and IKZF3 (Aiolos). The respective protein sequences had their C-terminal end joined to a GGGGS linker repeated three times followed by mNeonGreen, P2A sequence, and mScarlet. The DNA sequences of the open reading frames are as follows:
(§2) IKZF1, IKZF2, and IKZF3 constructs were cloned into the UCOE Hygromycin expression vectors (Millipore Sigma). Reporter constructs were transfected using cationic lipid reagents into adherent HEK 293T cells and stable integrants were selected by treatment with 200 μg/mL hygromycin B. Clonal populations were obtained from the population of stable integrants either by limiting dilution or fluorescence activated cell sorting.
(§3) The clonal stable cell lines were maintained under constant 200 μg/mL hygromycin B selection while being passaged for use in the degradation assays. […] The fluorescence intensity of the IKZF1/2/3-mNeonGreen (FITC channel) and mScarlet (PE channel) reporters were routinely analyzed by flow cytometry to confirm consistent expression levels between experiments.
(§4) The IKZF1/IKZF2/IKZF3 degradation assays were carried out by harvesting the HEK 293T reporter cell lines and resuspending the cells in media formulated for reduced background fluorescence (FluoroBrite; Thermo Fisher). The respective cell lines were seeded at a density of 4000 cells/well into black-walled 384-well optical grade assay tissue culture plates. The cells were incubated overnight at 37° C. to allow for attachment to the assay plate. Dilutions of the compounds were prepared in DMSO from 10 mM compound stocks. The assay plates were treated with appropriate concentrations of the compounds by dispensing the DMSO dilutions in quadruplicate wells with an upper limit of 0.5% final DMSO.
(§5) After 24 hours incubation with the compounds, the assay plates were imaged on an ImageXpress Pico microscopy system (cells maintained at 37° C. during imaging) to obtain the fluorescent readouts. The assay plates were imaged in the FITC and Tetramethylrhodamine (TRITC) channels to obtain the mNeonGreen fluorescence intensity (reporter degradation data) and mScarlet fluorescence intensity (for cell segmentation). 293T-IKZF1 and 293T-IKZF3 reporter cell lines were imaged with exposures of 500 milliseconds (ms) for both FITC and TRITC channels, while the 293T-IKZF2 reporter cell line was imaged with exposures of 1000 ms for FITC and 1250 ms for TRITC. The resulting data was analyzed with Cell Reporter Xpress software using the 2-channel cell scoring analysis with a “percent positive” readout. The TRITC channel was selected for the “nuclei” segmentation with a threshold of 20 while the FITC channel was selected for the “Marker 1” segmentation and a threshold of 100 for the IKZF1 and IKZF3 reporter lines. […] The minimum segmentation width was set to 6 micrometers and the maximum segmentation width was set to 15 micrometers for all cell lines. The DC50 calculations were determined by regression to best fit four-parameter logistic curves using GraphPad Prism.

IKZF2 (Helios) = target: T2, IKZF2 (Helios) (Homo sapiens, UniProt Q9UKS7); assay: IKZF2 reporter degradation assay (HEK 293T IKZF2-mNeonGreen reporter cell line); format: cell-based; conditions: HEK 293T IKZF2-mNeonGreen reporter, 24 hours incubation
T2 construct: Leu-Asp junction (codons ctcgac before the linker); mScarlet (behind P2A) (C, cleaved yes); expressed in transfected cells
Text: as §1, §2, §3, §4, §5

[1] = target: T3, human E3 ligase component cereblon (CRBN) (Homo sapiens, UniProt Q96SW2); assay: Cereblon (CRBN) target engagement, NanoBRET TE Intracellular E3 Ligase Assay in transfected HEK-293T cells; conditions: read-out: CRBN Binding EC50
T3 construct: host or cells: HEK293T
Method: HEK293T cells were harvested ca. 75% confluent with trypsin and plated (500,000 cells/well) in a 6-well tissue culture plate in 2 mL of Dulbecco's Modified Eagle Medium (DMEM)^+10% Fetal Bovine Serum (FBS) and incubated overnight at 37° C.
The NanoLuc-CRBN fusion vector (Nluc-CRBN; Promega) contains the coding region of human E3 ligase component cereblon (CRBN) fused to the C-terminus of the NanoLuc luciferase coding region. A mixture of 10 ng Nluc-CRBN and 990 ng DDB1 Expression Vector (Promega) was added to 125 μL Opti-Minimum Essential Medium (Opti-MEM™; Thermo Fisher) along with […] P3000 reagent (Thermo Fisher) in a 1.5 mL epppendorf tube. This solution was added to Lipofectamine 3000 transfection reagent (5 μL; Thermo Fisher) in Opti-MEM (125 μL), mixed well, and incubated for 15 minutes at room temperature. The transfection mixture was added dropwise to cells and incubated overnight at 37° C., 5% CO2. Following transfection, cells were washed once with PBS, and trypsin (250 μL) was added and incubated 30-45 see to dislodge cells. Complete media (2 mL) was added to resuspend cells to form a single cell suspension. Cells were centrifuged at 320×g for 5 min at room temperature, the supernatant was removed, and the cell pellet resuspended in Opti-MEM (3 mL; wash step repeated ×2). After final resuspension in 5 mL Opti-MEM, cells were counted and resuspended at 200,000 cells/mL in Opti-MEM.
Cereblon target engagement was monitored by Bioluminescence Resonance Energy Transfer (BRET) in transfected HEK-293T cells using the NanoBRET TE Intracellular E3 Ligase Assay (Promega). Briefly, 384-well plates (white opaque plates, Corning 3574, low binding surface) were seeded with transfected HEK-293T cells (38 μL/well). 2 μL of 10 μM CRBN tracer (diluted 1:5 in Tracer Dilution Buffer) was added to each well. Plates were centrifuged at 320×g for 1 min at room temperature. Test compounds were added in a 11-point dilution series (typically 10 μM to 100 pM) using a TECAN D300e Digital Dispenser. Plates were shaken for 2 minutes on a microplate shaker to mix compounds. Plates were centrifuged at 320×g for 1 min at room temperature, and subsequently incubated for 2 hours at 37° C.
After incubation, plates were allowed to cool to room temperature for 15 minutes. 20 μL of 3× Complete NanoBRET™ Nano-Glo® Substrate plus Inhibitor Solution (Promega, 1:166 Substrate and 1:500 dilution of Extracellular NanoLuc® Inhibitor diluted in Opti-MEM) were added to each well. Plates were incubated with shaking at room temperature for 3 minutes covered with foil. Plates were read on a CLARIOstar microplate reader (BMG LabTech), measuring at 450 nm (donor emission) and 610 nm (acceptor emission). The IC50 values were determined by regression to best fit four-parameter logistic curves using GraphPad Prism.

T2 sequence (Q9UKS7 whole entry): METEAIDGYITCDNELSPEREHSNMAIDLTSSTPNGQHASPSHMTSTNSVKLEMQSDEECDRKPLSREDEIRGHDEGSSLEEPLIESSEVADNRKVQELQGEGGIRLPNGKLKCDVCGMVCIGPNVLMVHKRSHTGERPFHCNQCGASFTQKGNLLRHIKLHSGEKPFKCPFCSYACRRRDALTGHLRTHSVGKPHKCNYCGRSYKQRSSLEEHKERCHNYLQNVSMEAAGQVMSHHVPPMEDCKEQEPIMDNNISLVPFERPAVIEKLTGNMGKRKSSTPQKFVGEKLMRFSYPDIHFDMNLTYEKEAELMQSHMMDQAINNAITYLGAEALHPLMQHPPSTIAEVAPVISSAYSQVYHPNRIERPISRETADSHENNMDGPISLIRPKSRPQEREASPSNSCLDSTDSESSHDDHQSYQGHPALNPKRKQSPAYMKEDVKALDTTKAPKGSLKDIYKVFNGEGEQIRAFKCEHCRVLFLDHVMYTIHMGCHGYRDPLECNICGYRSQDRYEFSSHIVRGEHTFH
T2 sequence (Q96SW2 whole entry, further chain): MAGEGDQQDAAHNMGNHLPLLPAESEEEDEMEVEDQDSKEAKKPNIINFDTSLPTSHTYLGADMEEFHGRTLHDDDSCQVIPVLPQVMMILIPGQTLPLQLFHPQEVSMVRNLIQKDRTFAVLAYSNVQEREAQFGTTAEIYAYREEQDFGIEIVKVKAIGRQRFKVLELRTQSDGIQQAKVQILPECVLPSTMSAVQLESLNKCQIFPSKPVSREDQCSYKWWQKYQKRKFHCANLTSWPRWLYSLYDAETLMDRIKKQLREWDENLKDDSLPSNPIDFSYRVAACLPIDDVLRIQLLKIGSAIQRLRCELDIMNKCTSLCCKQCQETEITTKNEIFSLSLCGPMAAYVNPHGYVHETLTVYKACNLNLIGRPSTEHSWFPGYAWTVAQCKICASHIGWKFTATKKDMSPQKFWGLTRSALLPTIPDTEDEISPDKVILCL
T2 sequence (Q16531 whole entry partner): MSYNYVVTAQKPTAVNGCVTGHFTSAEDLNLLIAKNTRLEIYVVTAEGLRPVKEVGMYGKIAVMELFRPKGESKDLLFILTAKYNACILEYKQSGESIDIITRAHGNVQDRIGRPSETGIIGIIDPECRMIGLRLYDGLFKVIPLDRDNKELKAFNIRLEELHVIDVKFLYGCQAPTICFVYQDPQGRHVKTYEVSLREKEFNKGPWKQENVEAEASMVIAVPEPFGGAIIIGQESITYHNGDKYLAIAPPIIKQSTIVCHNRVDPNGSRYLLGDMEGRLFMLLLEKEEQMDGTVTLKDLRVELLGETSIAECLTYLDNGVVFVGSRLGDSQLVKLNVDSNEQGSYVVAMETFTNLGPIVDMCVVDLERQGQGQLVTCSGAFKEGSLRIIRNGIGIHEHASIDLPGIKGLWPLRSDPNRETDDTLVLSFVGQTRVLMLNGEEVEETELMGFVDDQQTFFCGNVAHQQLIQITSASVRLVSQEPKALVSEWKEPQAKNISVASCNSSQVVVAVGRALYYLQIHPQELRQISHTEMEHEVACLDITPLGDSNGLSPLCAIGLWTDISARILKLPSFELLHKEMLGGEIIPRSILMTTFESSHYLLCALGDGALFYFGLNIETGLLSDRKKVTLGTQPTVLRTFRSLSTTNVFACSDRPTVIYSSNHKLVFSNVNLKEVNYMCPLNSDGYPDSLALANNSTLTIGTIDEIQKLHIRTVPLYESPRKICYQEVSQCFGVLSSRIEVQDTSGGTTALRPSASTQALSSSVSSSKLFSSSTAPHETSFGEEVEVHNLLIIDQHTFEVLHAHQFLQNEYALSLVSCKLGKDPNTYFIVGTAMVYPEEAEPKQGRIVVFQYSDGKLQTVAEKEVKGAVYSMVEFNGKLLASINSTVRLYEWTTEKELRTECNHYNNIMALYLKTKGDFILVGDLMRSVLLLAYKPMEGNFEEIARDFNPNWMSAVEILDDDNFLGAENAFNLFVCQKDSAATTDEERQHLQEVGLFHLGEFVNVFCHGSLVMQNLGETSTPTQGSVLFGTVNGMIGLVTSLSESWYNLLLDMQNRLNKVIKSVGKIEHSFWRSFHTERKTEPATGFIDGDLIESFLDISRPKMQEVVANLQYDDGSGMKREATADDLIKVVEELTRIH
T3 sequence (Q96SW2 whole entry): as the sequence (Q96SW2 whole entry, further chain) above
T3 sequence (Q16531 whole entry partner): as the sequence (Q16531 whole entry partner) above
T1 sequence (Q96SW2 whole entry partner): as the sequence (Q96SW2 whole entry, further chain) above
T1 sequence (Q16531 whole entry partner): as the sequence (Q16531 whole entry partner) above
T1 sequence (Q9UKT9 whole entry): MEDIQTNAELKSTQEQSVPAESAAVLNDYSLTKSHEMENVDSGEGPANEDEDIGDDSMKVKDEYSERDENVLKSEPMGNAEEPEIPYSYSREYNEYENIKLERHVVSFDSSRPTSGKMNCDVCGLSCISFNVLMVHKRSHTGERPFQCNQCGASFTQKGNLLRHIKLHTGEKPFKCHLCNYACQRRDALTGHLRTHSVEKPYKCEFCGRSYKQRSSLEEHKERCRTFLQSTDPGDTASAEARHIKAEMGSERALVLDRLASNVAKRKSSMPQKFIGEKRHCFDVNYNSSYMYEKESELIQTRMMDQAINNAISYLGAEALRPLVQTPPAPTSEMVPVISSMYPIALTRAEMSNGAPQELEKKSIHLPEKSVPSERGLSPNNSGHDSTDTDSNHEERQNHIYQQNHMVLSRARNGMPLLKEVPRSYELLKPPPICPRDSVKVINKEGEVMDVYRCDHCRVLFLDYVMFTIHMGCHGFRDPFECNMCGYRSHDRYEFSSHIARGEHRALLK

| Compound | DC50 (IKZF3 (Aiolos)) [nM] | DC50 (IKZF2 (Helios)) [nM] | EC50 [1] [nM] |
| --- | --- | --- | --- |
| O=C1CCC(N2Cc3cc(OC4CCCC4N4CC(c5ccc(C(F)(F)F)nc5)C4)ccc3C2=O)C(=O)N1 (stereo not shown) [Compound 141-B, 3-(1-oxo-5-((2-(3-(6-(trifluoromethyl)pyridin-3-yl)azetidin-1-yl)cyclopentyl)oxy)isoindolin-2-yl)piperidine-2,6-dione] | > 30000 | > 30000 | 37 |
| O=C1CCC(N2Cc3cc(O[C@H]4CCCC[C@H]4N4CC(c5ccc(Cl)cn5)C4)ccc3C2=O)C(=O)N1 (mixture of isomers) [Compound 164-B, Rac-3-(5-(((cis)-2-(3-(5-chloropyridin-2-yl)azetidin-1-yl)cyclohexyl)oxy)-1-oxoisoindolin-2-yl)piperidine-2,6-dione] | > 30000 | > 30000 | 15 |
| O=C1NC(=O)C2(N3Cc4cc(OC5CCCC5N5CC(c6ccncc6)C5)ccc4C3=O)CC1C2 (stereo not shown) [Compound 148-B, 1-(1-oxo-5-((2-(3-(pyridin-4-yl)azetidin-1-yl)cyclopentyl)oxy)isoindolin-2-yl)-3-azabicyclo[3.1.1]heptane-2,4-dione] | > 30000 | > 30000 | > 10000 |
| O=C1CCC(N2Cc3cc(O[C@@H]4CCCC[C@@H]4N4CC(c5ncc(Br)cn5)C4)ccc3C2=O)C(=O)N1 (mixture of isomers) [Compound 138-B, Rac-3-(5-(((cis)-2-(3-(5-bromopyrimidin-2-yl)azetidin-1-yl)cyclohexyl)oxy)-1-oxoisoindolin-2-yl)piperidine-2,6-dione] | > 30000 | > 30000 | 5 |
| N#Cc1cc(C2CN([C@H]3CCCC[C@@H]3Oc3ccc4c(c3)CN(C3CCC(=O)NC3=O)C4=O)C2)ccn1 (mixture of isomers) [Compound 180-B, Rac-4-(1-((trans)-2-((2-(2,6-dioxopiperidin-3-yl)-1-oxoisoindolin-5-yl)oxy)cyclohexyl)azetidin-3-yl)picolinonitrile] | > 30000 | > 30000 | 41 |
| O=C1CCC(N2Cc3cc(OC4CCCC4N4CC(c5cncc(C(F)(F)F)c5)C4)ccc3C2=O)C(=O)N1 (stereo not shown) [Compound 154-B, 3-(1-oxo-5-((2-(3-(5-(trifluoromethyl)pyridin-3-yl)azetidin-1-yl)cyclopentyl)oxy)isoindolin-2-yl)piperidine-2,6-dione] | > 30000 | > 30000 | 56 |
| O=C1CCC(N2Cc3cc(O[C@@H]4CCCC[C@H]4N4CC(c5ncc(C6CC6)cn5)C4)ccc3C2=O)C(=O)N1 (single isomer, unassigned) [Compound 132-B] | – | > 30000 | 3 |
| O=C1CCC(N2Cc3cc(O[C@@H]4CCCC[C@@H]4N4CC(c5cncc(Cl)c5)C4)ccc3C2=O)C(=O)N1 (stereo partly drawn) [Compound 105-B, 3-(5-(((1R,2S)-2-(3-(5-chloropyridin-3-yl)azetidin-1-yl)cyclohexyl)oxy)-1-oxoisoindolin-2-yl)piperidine-2,6-dione] | – | > 30000 | 29 |
| O=C1CCC(N2Cc3cc(O[C@@H]4CCCC[C@H]4N4CC(c5ncc(Cl)cn5)C4)ccc3C2=O)C(=O)N1 (single isomer, unassigned) [Compound 109-B] | – | > 30000 | 9 |
| O=C1CCC(N2Cc3cc(OC4CCCCC4N4CC(c5cncc(C(F)(F)F)c5)C4)ccc3C2=O)C(=O)N1 (stereo not shown) [Compound 178-B, 3-(1-oxo-5-((2-(3-(5-(trifluoromethyl)pyridin-3-yl)azetidin-1-yl)cyclohexyl)oxy)isoindolin-2-yl)piperidine-2,6-dione] | > 30000 | > 30000 | 39 |
| O=C1CCC(N2Cc3cc(O[C@H]4CCCC[C@H]4N4CC(c5ccc(Cl)cn5)C4)ccc3C2=O)C(=O)N1 (single isomer, unassigned) [Compound 97-B] | – | > 30000 | 11 |
| O=C1CCC(N2Cc3cc(O[C@H]4CCCC[C@@H]4N4CC(c5ncc(Cl)cn5)C4)ccc3C2=O)C(=O)N1 (single isomer, unassigned) [Compound 110-B] | – | > 30000 | 32 |
